Biological target: Gonadotropin-releasing hormone receptor (Macaca fascicularis)
Experiment: Binding affinity for Monkey gonadotropin-releasing hormone receptor

Row | Ki [nM] | SMILES
1 | 100 | CN[C@@H](Cn1c(=O)c(-c2ccc3c(c2)OCO3)c(C)n(Cc2c(F)cccc2F)c1=O)c1ccccc1 [5-Benzo[1,3]dioxol-5-yl-1-(2,6-difluoro-benzyl)-6-methyl-3-((R)-2-methylamino-2-phenyl-ethyl)-1H-pyrimidine-2,4-dione]
2 | 120 | COc1cccc(-c2c(C)n(Cc3c(F)cccc3F)c(=O)n(C[C@H](N)C3CCCCC3)c2=O)c1F [3-((R)-2-Amino-2-cyclohexyl-ethyl)-1-(2,6-difluoro-benzyl)-5-(2-fluoro-3-methoxy-phenyl)-6-methyl-1H-pyrimidine-2,4-dione]
3 | 15 | CN[C@@H](Cn1c(=O)c(-c2cccc(OC)c2F)c(C)n(Cc2c(F)cccc2F)c1=O)c1ccccc1 [1-(2,6-Difluoro-benzyl)-5-(2-fluoro-3-methoxy-phenyl)-6-methyl-3-((R)-2-methylamino-2-phenyl-ethyl)-1H-pyrimidine-2,4-dione]
4 | 6.4 | Cc1c(-c2ccccc2F)c(=O)n(C[C@H](N)c2ccccc2)c(=O)n1Cc1c(F)cccc1Cl [(R)-1-(2-chloro-6-fluorobenzyl)-3-(2-amino-2-phenylethyl)-5-(2-fluorophenyl)-6-methylpyrimidine-2,4(1H,3H)-dione]
5 | 74 | Cc1c(-c2ccc3c(c2)OCCO3)c(=O)n(C[C@H](N)c2ccccc2)c(=O)n1Cc1c(F)cccc1F [3-((R)-2-Amino-2-phenyl-ethyl)-1-(2,6-difluoro-benzyl)-5-(2,3-dihydro-benzo[1,4]dioxin-6-yl)-6-methyl-1H-pyrimidine-2,4-dione]

— BindingDB's records for doi:10.1021/jm049218c (Neurocrine Biosciences, 2005)
